Numbers after ± are expanded uncertainties.
Conditions: Liquid, Ebulliometric method (Recirculating still)

With `CCCOC(C)=O` [propyl ethanoate] the “vapor or sublimation pressure” value (374.62 K) was 101.3 ± 3.6 kPa.
In the case of `C[S+](C)[O-]` [dimethyl sulfoxide], the “vapor or sublimation pressure” value (463.27 K) is reported as 101.3 ± 3.6 kPa.
For `CCOC(C)=O` [ethyl acetate], the “vapor or sublimation pressure” value (350.29 K) was 101.3 ± 3.6 kPa.

Source: the NIST ThermoML archive (doi:10.1016/j.jct.2019.03.036)
